Key:
PDHE2 K259 in HeLa cells = biological target: T1, PDHE2 K259 in HeLa cells (Homo sapiens, UniProt P10515); test: Proteomic analysis of PTMs on immunoprecipitated PDHE2; format: cell-based; conditions: 500 µM DEG, 24 h
T1 construct: Proteomic analysis of PDHE2 immunoprecipitated from HeLa cells; endogenous in cells; host or cells: HeLa cells
Protocol: HeLa cells were lysed on ice for 30 min in a HEPES buffer (150 mM NaCl, 50 mM HEPES, pH 7.0, 1% IGEPAL CA-630, 1 mM nicotinamide (Sigma-Aldrich), 5 mM Tris(2-carboxyethyl)phosphine hydrochloride (Sigma-Aldrich), 1× Complete Protease Inhibitor Cocktail (Roche) and 1 mM phenylmethylsulfonyl fluoride). Lysates were centrifuged at 14,000g for 10 min at 4 °C. Free thiols were blocked by adding 10 mM N-ethylmaleimide (NEM) (Sigma-Aldrich) and incubated on a rotator at 4 °C for 1 h. Lysates were immunoprecipitated by incubation with protein G Dynabeads (catalogue no. 10003D, Invitrogen), first for 1 h to pre-clear, and then overnight with the DLAT antibody (12362S (4A4-B6-C10), Cell Signaling Technology). […]
Raw files were processed using PEAKS Studio (v.8.0, Bioinformatics Solutions) with the following parameters: enzyme: AspN, human database (UniProt reference proteome downloaded 21 January 2021 containing 20,541 proteins) with additional contaminant database (containing 246 common contaminants); variable modifications at PEAKS database stage: oxidation, carbamidomethylation, lipoylation, 1× and 2× NEM, glutaryl lipoate, NEM glutaryl lipoate and 309 built-in modifications at PEAKS PTM stage. The area under the curve (AUC) values for each peptide were extracted from the PEAKS peptide list, with AUCs calculated by PEAKS.

CD8^+ T cells = test: Western blot of PDHK1, phosphorylated PDHc and PDHc; format: cell-based, human; conditions: 500 µM DEG
Protocol: Cell pellets were lysed by either urea-Tris buffer (8 M urea, 50 mM Tris-HCl (pH 7.5), 150 mM β-mercaptoethanol), sonicated twice for 45 s intercalated with 1 min incubation on ice and centrifuged at 14,000g, 4 °C for 15 min or by RIPA Lysis and Extraction Buffer (catalogue no. 89900, Thermo Fisher Scientific), according to the manufacturer’s instructions. Nuclear and cytosolic fractions were prepared from cells using the NE-PER kit (catalogue no. 78833, Thermo Fisher Scientific). Histones were extracted with the Histone Extraction Kit (catalogue no. ab113476, Abcam). Proteins were separated by SDS–PAGE and transferred to polyvinylidene fluoride (PVDF) membranes. Total protein stain was obtained using non-stain protein labelling reagent (catalogue no. A44448, Thermo Fisher Scientific). Membranes were then blocked in 5% milk prepared in PBS plus 0.05% Tween-20, incubated with primary antibodies overnight at 4 °C and horseradish peroxidase (HRP)-conjugated secondary antibodies (catalogue nos. HAF008 and HAF007, R&D Systems) for 1 h the next day. After enhanced chemiluminescence (ECL) exposure (catalogue no. GERPN2106, Sigma-Aldrich), membranes were imaged using an iBrightCL1000 (Thermo Fisher Scientific). The following primary antibodies from Cell Signaling Technology were used at a concentration of 1:1,000: anti-PDHK1 (catalogue no. 3820); anti-β-actin (catalogue no. 12262S); anti-PPIB (catalogue no. 43603); anti-OGDH (catalogue no. 26865S); anti-phospho-PDH α1 (catalogue no. 37115); anti-SIRT5 (catalogue no. 8779S); anti-H3 (catalogue no. 4499); anti-H3K4me2 (catalogue no. 9725); anti-H3K4me3 (catalogue no. 9751); anti-H3K9me2 (catalogue no. 4658); anti-H3K9me3 (catalogue no. 13969); anti-H3K27me2 (catalogue no. 9728); anti-H3K27me3 (catalogue no. 9733); anti-H3K36me2 (catalogue no. 2901); anti-H3K36me3 (catalogue no. 4909); anti-H3K79me2 (catalogue no. 5427); anti-H3K79me3 (catalogue no. 4360); anti-H3k9ac (catalogue no. 9649); anti-H3K18ac (catalogue no. 13998); and anti-H3k27ac (catalogue no. 8173). […]

T1 sequence (P10515 87-647): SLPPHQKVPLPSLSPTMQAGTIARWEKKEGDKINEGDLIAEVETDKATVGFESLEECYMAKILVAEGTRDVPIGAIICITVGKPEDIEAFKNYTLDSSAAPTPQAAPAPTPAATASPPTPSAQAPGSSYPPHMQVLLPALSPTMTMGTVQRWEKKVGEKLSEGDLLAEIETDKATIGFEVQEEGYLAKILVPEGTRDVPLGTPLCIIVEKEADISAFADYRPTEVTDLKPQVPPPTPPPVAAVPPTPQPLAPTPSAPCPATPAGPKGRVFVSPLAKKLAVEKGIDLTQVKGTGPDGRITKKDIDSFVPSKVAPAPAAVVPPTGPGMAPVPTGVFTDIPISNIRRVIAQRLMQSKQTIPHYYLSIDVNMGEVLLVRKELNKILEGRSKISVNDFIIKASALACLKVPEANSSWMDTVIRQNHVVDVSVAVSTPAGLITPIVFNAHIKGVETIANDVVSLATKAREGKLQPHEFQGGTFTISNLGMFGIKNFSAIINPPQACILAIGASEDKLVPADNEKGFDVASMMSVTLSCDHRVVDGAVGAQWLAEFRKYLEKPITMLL

## CCOC(=O)CCCC(=O)OCC [DEG, Diethyl glutarate]
PDHE2 K259 in HeLa cells
  levels of glutaryl-lipoyl K259 of PDHE2: increasing
  levels of lipoyl K259 of PDHE2: reduced
CD8^+ T cells
  PDHK1 protein levels: not significantly altered
  PDHc phosphorylation levels: did not observe any changes
  protein expression of the PDHc: did not alter

Reference: PMC10590756, “Glutarate regulates T cell metabolism and anti-tumour immunity” (Nature Metabolism, 2023)
